Results taken from paper PMC8518114, “Safety, tolerability and pharmacokinetics of emodepside, a potential novel treatment for onchocerciasis (river blindness), in healthy male subjects” (British Journal of Clinical Pharmacology, 2021).
Read-outs that look alike come from different tables or passages of the source.

Experiments:
[1] = rat, in vivo; cited from earlier work
From the text: This is in line with nonclinical PK studies in rats and dogs, in which emodepside volume ...

[2] = Plasma pharmacokinetics of emodepside, single ascending dose (SAD) and food effect study; format: in vivo, human; details: for AUC 0–24 /D / C max /D: dose-normalised; for t ½ 0–24 (dominant half-life): terminal slope of log concentration–time (0–24 h) curve; for half-life: ln2/λz, read-out: Terminal t ½ (converted); for Tmax: median (range)
Protocol: Emodepside and placebo were supplied as a LSF and a standard immediate‐release (IR) tablet. The LSF was a 0.1% (w/v) solution containing 1 mg emodepside/mL. Conventional IR tablets containing emodepside in crystalline form were supplied in 2 dosage strengths, 5 and 20 mg, for the single ascending dose (SAD) study.
To preclude any dietary effects on the PK of emodepside, subjects in the fasting cohorts fasted for 9 hours before receiving the IP. Subjects in the fed cohort fasted for 10 hours prior to dosing and received a standard high‐calorie, high‐fat breakfast 30 minutes prior to dosing.
Blood samples (5 mL) were collected by venepuncture or via a cannula into EDTA tubes and immediately placed on ice. Samples were centrifuged at 1500 g for 10 minutes at 4°C. The plasma was aliquoted into 2 polypropylene tubes, which were stored at −20°C. Blood samples for PK analysis were taken at the following time points: • SAD: predose and 0.5, 1, 1.5, 2, 2.5, 3, 4, 5, 6, 8, 12, 24, 36, 48, 72, 96, 120, 144 and 168 hours, and 21 days postdose (cohort 1–9) or predose and 0.5, 1, 3, 6, 8, 12, 24, 36, 48, 72, 96, 120, 144 and 168 hours, and 10, 14, 18 and 21 days postdose (cohort 10). • Multiple ascending dose (MAD), as below: • on Day 1: predose and at 0.25, 0.5, 1, 1.5, 2, 2.5, 3, 4, 6, 8, 12 and 15 hours postdose • on Days 2–9: before the morning dose • on Day 10: before and at 0.25, 0.5, 1, 1.5, 2, 2.5, 3, 4, 6, 8, 12 and 15 hours • on Days 11, 12, 13, 14, 15, 18, 21, 24 and 30.
Emodepside plasma concentrations were determined by a validated high performance liquid chromatography–tandem mass spectrometry assay, using a Alltima C18 5 μm 150 mm x 2.1 mm column and an Applied Biosystems API4000 Turbo Ion Spray detector using positive ion mode. Analyst version 1.3.2 or 1.6.3 software, obtained from AB Sciex UK Ltd, Warrington, UK was used for chromatogram data analysis and quantitative calculations. Deuterated emodepside‐D16 was used as the internal standard. The lower limit of quantitation for emodepside in plasma was 1 ng/mL. Values below this limit were not used to calculate the PK parameters, except values that were below the limit of quantification before Cmax, which were set to zero.
The highest observed plasma concentration (Cmax) was determined directly from concentration–time data, as was the time to reach maximum plasma concentration (tmax). The area under the plasma concentration–time curve from time zero (predose) to the time of last quantifiable concentration (AUC0‐last) was calculated using the linear‐log trapezoidal rule. Elimination half‐life (t1/2) was calculated by the equation ln2/λz.
Statistical analyses were performed using SAS version 9.3 (Cary, NC, USA). Demographic data and baseline characteristics were listed and summarised. […] PK parameters were derived from plasma concentration vs. time data using a noncompartmental analysis in Phoenix WinNonlin version 7 (Certara Inc., Princeton, NJ, USA). Plasma concentration vs. time data and PK parameters were listed, and summarised by treatment, using descriptive statistics. Mean concentrations were calculated only if at least ⅔ of the individual concentrations were above the lower limit of quantification. […] Planned sampling times were used to summarise plasma‐concentration data; actual sampling times were used in the derivation of PK parameters.

[3] = SAD, single oral 1 mg LSF fasting, mean
[4] = SAD, single oral 2.5 mg LSF fasting, mean
[5] = SAD, single oral 5 mg IRT fasting, mean
[6] = SAD, single oral 5 mg LSF fasting, mean
[7] = SAD, single oral 10 mg LSF Fed, mean
[8] = SAD, single oral 10 mg LSF fasting, mean
[9] = SAD, single oral 20 mg IRT fasting, mean
[10] = SAD, single oral 20 mg LSF fasting, mean
[11] = SAD, single oral 40 mg LSF fasting, mean
[12] = human, in vivo, po, 1 mg, SAD, single oral 1 mg LSF fasting, plasma, HPLC-MS/MS, mean
[13] = human, in vivo, po, 2.5 mg, SAD, single oral 2.5 mg LSF fasting, plasma, HPLC-MS/MS, mean
[14] = human, in vivo, po, 5 mg, SAD, single oral 5 mg IRT fasting, plasma, HPLC-MS/MS, mean
[15] = human, in vivo, po, 5 mg, SAD, single oral 5 mg LSF fasting, plasma, HPLC-MS/MS, mean
[16] = human, in vivo, po, 10 mg, SAD, single oral 10 mg LSF Fed, plasma, HPLC-MS/MS, mean
[17] = human, in vivo, po, 10 mg, SAD, single oral 10 mg LSF fasting, plasma, HPLC-MS/MS, mean
[18] = human, in vivo, po, 20 mg, SAD, single oral 20 mg IRT fasting, plasma, HPLC-MS/MS, mean
[19] = human, in vivo, po, 20 mg, SAD, single oral 20 mg LSF fasting, plasma, HPLC-MS/MS, mean
[20] = human, in vivo, po, 40 mg, SAD, single oral 40 mg LSF fasting, plasma, HPLC-MS/MS, mean

CC(C)C[C@H]1C(=O)O[C@H](Cc2ccc(N3CCOCC3)cc2)C(=O)N(C)[C@@H](CC(C)C)C(=O)O[C@H](C)C(=O)N(C)[C@@H](CC(C)C)C(=O)O[C@H](Cc2ccc(N3CCOCC3)cc2)C(=O)N(C)[C@@H](CC(C)C)C(=O)O[C@H](C)C(=O)N1C [emodepside]
Radioactivity levels in tissues vs blood, radio-labelled emodepside [1]: higher in most tissues than in the blood
Plasma emodepside concentrations lower in the first 24 hours postdose, based on geometric mean Cmax ([2]; SAD, all dose levels and both formulations): approximately 90%
AUC0-last in fed relative to fasting conditions ([2]; SAD, single 10-mg dose of the LSF): not statistically different
AUC 0–24 /D [2, 3]: 100 [h.ng/mL]/mg
C max /D [2, 3]: 18.6 [ng/mL]/mg
t ½ 0–24 (dominant half-life) [2, 3]: 8.45 h
AUC 0–24 /D [2, 4]: 100 [h.ng/mL]/mg
C max /D [2, 4]: 15.0 [ng/mL]/mg
t ½ 0–24 (dominant half-life) [2, 4]: 10.6 h
AUC 0–24 /D [2, 5]: 36.5 [h.ng/mL]/mg
C max /D [2, 5]: 5.15 [ng/mL]/mg
AUC 0–24 ([2]; SAD, single oral 5 mg IRT fasting, plasma, HPLC-MS/MS, mean): 183 ng·h/mL
t ½ 0–24 (dominant half-life) [2, 5]: 10.8 h
AUC 0–24 /D [2, 6]: 104 [h.ng/mL]/mg
C max /D [2, 6]: 18.4 [ng/mL]/mg
AUC 0–24 ([2]; SAD, single oral 5 mg LSF fasting, plasma, HPLC-MS/MS, mean): 522 ng·h/mL
t ½ 0–24 (dominant half-life) [2, 6]: 11.6 h
AUC 0–24 /D [2, 7]: 67.3 [h.ng/mL]/mg
C max /D [2, 7]: 7.19 [ng/mL]/mg
t ½ 0–24 (dominant half-life) [2, 7]: 11.1 h
AUC 0–24 /D [2, 8]: 99.6 [h.ng/mL]/mg
C max /D [2, 8]: 17.2 [ng/mL]/mg
t ½ 0–24 (dominant half-life) [2, 8]: 10.9 h
AUC 0–24 /D [2, 9]: 11.2 [h.ng/mL]/mg
C max /D [2, 9]: 1.51 [ng/mL]/mg
AUC 0–24 ([2]; SAD, single oral 20 mg IRT fasting, plasma, HPLC-MS/MS, mean): 223 ng·h/mL
t ½ 0–24 (dominant half-life) [2, 9]: 11.3 h
AUC 0–24 /D [2, 10]: 95.3 [h.ng/mL]/mg
C max /D [2, 10]: 15.3 [ng/mL]/mg
AUC 0–24 ([2]; SAD, single oral 20 mg LSF fasting, plasma, HPLC-MS/MS, mean): 1910 ng·h/mL
t ½ 0–24 (dominant half-life) [2, 10]: 10.5 h
AUC 0–24 /D [2, 11]: 103 [h.ng/mL]/mg
C max /D [2, 11]: 14.9 [ng/mL]/mg
AUC last ([2]; SAD, single oral 40 mg LSF fasting, plasma, HPLC-MS/MS, mean): 16 400 h.ng/mL
Half-life during the first 24 hours after dosing (distribution phase) ([2]; healthy subjects, oral, across the 2 studies): around 11 hours
AUC 0–24 h [2, 12]: 100 ng·h/mL
AUC(0-t) [2, 12]: 182 ng·h/mL
Cmax [2, 12]: 18.6 ng/mL
half-life ([2]; human, in vivo, po, 1 mg, SAD, single oral 1 mg LSF fasting, plasma, mean): 1.78 days
Tmax ([2]; human, in vivo, po, 1 mg, SAD, single oral 1 mg LSF fasting, plasma): 1 h
AUC 0–24 h [2, 13]: 250 ng·h/mL
AUC(0-t) [2, 13]: 845 ng·h/mL
Cmax [2, 13]: 37.6 ng/mL
half-life ([2]; human, in vivo, po, 2.5 mg, SAD, single oral 2.5 mg LSF fasting, plasma, mean): 18.7 days
Tmax ([2]; human, in vivo, po, 2.5 mg, SAD, single oral 2.5 mg LSF fasting, plasma): 1 h
F rel ([2]; human, in vivo, po, 5 mg): 35%
AUC(0-t) [2, 14]: 501 ng·h/mL
Cmax [2, 14]: 25.7 ng/mL
half-life ([2]; human, in vivo, po, 5 mg, SAD, single oral 5 mg IRT fasting, plasma, mean): 11.1 days
Tmax ([2]; human, in vivo, po, 5 mg, SAD, single oral 5 mg IRT fasting, plasma): 2 h
AUC(0-t) [2, 15]: 1700 ng·h/mL
Cmax [2, 15]: 92.1 ng/mL
half-life ([2]; human, in vivo, po, 5 mg, SAD, single oral 5 mg LSF fasting, plasma, mean): 17.3 days
Tmax ([2]; human, in vivo, po, 5 mg, SAD, single oral 5 mg LSF fasting, plasma): 1 h
AUC 0–24 h [2, 16]: 673 ng·h/mL
AUC(0-t) [2, 16]: 3390 ng·h/mL
Cmax [2, 16]: 71.9 ng/mL
half-life ([2]; human, in vivo, po, 10 mg, SAD, single oral 10 mg LSF Fed, plasma, mean): 22.1 days
Tmax ([2]; human, in vivo, po, 10 mg, SAD, single oral 10 mg LSF Fed, plasma): 2.5 h
AUC 0–24 h [2, 17]: 996 ng·h/mL
AUC(0-t) [2, 17]: 3070 ng·h/mL
Cmax [2, 17]: 172 ng/mL
half-life ([2]; human, in vivo, po, 10 mg, SAD, single oral 10 mg LSF fasting, plasma, mean): 15.2 days
Tmax ([2]; human, in vivo, po, 10 mg, SAD, single oral 10 mg LSF fasting, plasma): 1 h
AUC(0-t) [2, 18]: 667 ng·h/mL
Cmax [2, 18]: 30.2 ng/mL
half-life ([2]; human, in vivo, po, 20 mg, SAD, single oral 20 mg IRT fasting, plasma, mean): 14.5 days
Tmax ([2]; human, in vivo, po, 20 mg, SAD, single oral 20 mg IRT fasting, plasma): 2 h
AUC(0-t) [2, 19]: 7480 ng·h/mL
Cmax [2, 19]: 306 ng/mL
half-life ([2]; human, in vivo, po, 20 mg, SAD, single oral 20 mg LSF fasting, plasma, mean): 24.6 days
Tmax ([2]; human, in vivo, po, 20 mg, SAD, single oral 20 mg LSF fasting, plasma): 1.5 h
AUC 0–24 h [2, 20]: 4110 ng·h/mL
Cmax [2, 20]: 595 ng/mL
half-life ([2]; human, in vivo, po, 40 mg, SAD, single oral 40 mg LSF fasting, plasma, mean): 16.3 days
Tmax ([2]; human, in vivo, po, 40 mg, SAD, single oral 40 mg LSF fasting, plasma): 1.05 h
Frel, relative bioavailability IR tablet vs. LSF ([2]; in vivo): 11.71%
